For one series, the system named is Echinochloa crus-galli. As to the kind of experiment: Test Example 1-2: foliar spray, controlling effect on Echinochloa crus-galli. More on the design: key: 0 represents “no effect”; 10 represents “complete death”; a state of the plant therebetween is classified into 1 to 9. Particulars: treatment amount 1,000 g/ha; sprayed at second- to third-leaf stage; visually evaluated after 20 days. It is filed as in vivo. As for the experimental part:
A plastic cup with a diameter of 8 cm and a depth of 6.5 cm was filled with soil. Seeds of Echinochloa crus-galli were sowed in the cup, and then the plant was grown until the second- to third-leaf stage. Then, a determined amount of a test solution containing the compound of the present invention was sprayed onto the whole plant uniformly. The test solution was prepared by dissolving a predetermined amount of the compound of the present invention in a 2% solution of Tween 20 (polyoxyethylene sorbitan fatty acid ester, MP Biomedicals, Inc.) in dimethylformamide and then diluting the solution with water. After the spray treatment, the plant was grown in a greenhouse. After 20 days, a controlling effect of the compound on Echinochloa crus-galli was visually evaluated. The effect was classified into 11 levels, from 0 to 10 (0 represents “no effect”; 10 represents “complete death”; and a state of the plant therebetween is classified into 1 to 9).
(§1) Compound D was similarly tested as a comparative example.

For a further series, the system named is Lolium multiflorum. As to the kind of experiment: Test Example 1-1: foliar spray, controlling effect on Lolium multiflorum. Format: in vivo. Details: key: 0 represents “no effect”; 10 represents “complete death”; a state of the plant therebetween is classified into 1 to 9. Particulars: treatment amount 250 g/ha; sprayed at first to second leaf stage; visually evaluated after 20 days. As for the experimental part: A plastic cup with a diameter of 8 cm and a depth of 6.5 cm was filled with soil. Seeds of Lolium multiflorum were sowed in the cup, and then the plant was grown until the first to second leaf stage. Then, a determined amount of a test solution containing the compound of the present invention was sprayed onto the whole plant uniformly. The test solution was prepared by dissolving a predetermined amount of the compound of the present invention in a 2% solution of Tween 20 (polyoxyethylene sorbitan fatty acid ester, MP Biomedicals, Inc.) in dimethylformamide and then, diluting the solution with water. After the spray treatment, the plant was grown in a greenhouse. After 20 days, a controlling effect of the compound on Lolium multiflorum was visually evaluated. The effect was classified into 11 levels, from 0 to 10 (0 represents “no effect”; 10 represents “complete death”; and a state of the plant therebetween is classified into 1 to 9).
Compound D as shown below was similarly tested as a comparative example.

A further series relates to Galium aparine. As to the kind of experiment: Test Example 1-3: foliar spray, controlling effect on Galium aparine. Particulars: treatment amount 250 g/ha; sprayed at second- to third-leaf stage; visually evaluated after 20 days. Details: key: 0 represents “no effect”; 10 represents “complete death”; a state of the plant therebetween is classified into 1 to 9. It is filed as in vivo. As for the experimental part:
A plastic cup with a diameter of 8 cm and a depth of 6.5 cm was filled with soil. Seeds of Galium aparine were sowed in the cup, and then the plant was grown until the second- to third-leaf stage. Then, a determined amount of a test solution containing the compound of the present invention was sprayed onto the whole plant uniformly. The test solution was prepared by dissolving a predetermined amount of the compound of the present invention in a 2% solution of Tween 20 (polyoxyethylene sorbitan fatty acid ester, MP Biomedicals, Inc.) in dimethylformamide and then diluting the solution with water. After the spray treatment, the plant was grown in a greenhouse. After 20 days, a controlling effect of the compound on Galium aparine was visually evaluated. The effect was classified into 11 levels, from 0 to 10 (0 represents “no effect”; 10 represents “complete death”; and a state of the plant therebetween is classified into 1 to 9).
as §1

In series [1] the test system is Frankliniella occidentalis. Nature of the series: Test Example 2-8: sprayed cucumber leaf, larvae of Frankliniella occidentalis. It is filed as in vivo. Particulars: 500 ppm, 10 mL/cup sprayed on cucumber seedling; 25° C., 7 days. As for the experimental part: The formulation of the compound of the present invention obtained in Reference Example 3 was diluted with water so that the concentration of the active ingredient became 500 ppm to prepare a test solution. On a cucumber seedling at the second true leaf stage planted in a polyethylene cup, 10 mL/cup of the test solution was sprayed. After the test solution was dried, the first true […] cut off and then placed in a polyethylene cup. Into the polyethylene cup, 20 larvae of Frankliniella occidentalis were released, and the cup was sealed with a lid. After the cup was kept at 25° C. for 7 days, the number of the insects surviving on the cucumber leaves was counted, and a controlling value was determined by the following equation. Controlling value (%)={1-(Cb×Tai)/(Cai×Tb)}×100 wherein Cb: the number of insects in a non-treated section before treatment, Cai: the number of insects in a non-treated section on observation, Tb: the number of insects in a treated-section before treatment, Tai: the number of insects in a treated section on observation.

Another series relates to Adoxophyes orana. Nature of the series: Test Example 2-1: artificial diet test on first-instar larvae of Adoxophyes orana. It is filed as in vivo. Particulars: 500 ppm test solution, 1 mL on artificial diet; 25° C., 7 days. As for the experimental part: The formulation of the compound of the present invention obtained in Formulation Example 3 was diluted with water so that the concentration of the active ingredient became 500 ppm to prepare a test solution.
(§2) An artificial diet, Silkmate 2S (Nihon Nosan Kogyo Corp.) was sliced into 2 mm in thickness and then placed on the bottom of a polyethylene cup. Then, 1 mL of the test solution was poured into the polyethylene cup. After air dried, 30 first-instar larvae of Adoxophyes orana were released into the polyethylene cup, and the cup was sealed with a lid. After the polyethylene cup was kept at 25° C. for 7 days, the number of surviving insects was counted. A death rate was calculated by the following equation, and the effect of the tested compound was evaluated with the following insecticidal indexes. Death rate (%)={1−(Number of surviving insects/Number of tested insects)}×100 Insecticidal indexes 4: death rate of 100%, 3: death rate of 80-99%, 2: death rate of 60-79%, 1: death rate of 30-59%, 0: death rate of 0-29%

For a further series, the system named is Culex pipiens pallens. Nature of the series: Test Example 2-3: last-instar larvae of Culex pipiens pallens released into dilution. It is filed as in vivo. Particulars: active ingredient concentration 3.5 ppm in water; after 8 days. As for the experimental part:
The formulation of the compound of the present invention obtained in Reference Example 3 was diluted with water so that the concentration of the active ingredient became 500 ppm to prepare a test solution. 0.7 mL of the test solution was diluted with ion-exchanged water so that the active ingredient concentration became 3.5 ppm. Into the dilution, 20 last-instar larvae of Culex pipiens pallens were released. After 8 days, the number of dead insects was counted. A death rate was calculated by the following equation, and the effect of the tested compound was evaluated with following insecticidal indexes of 4: death rate of 91-100%, 2: death rate of 11-90%, and 0: death rate of 0-10%. Death rate (%)=(Number of dead insects/Number of tested insects)×100

For the next series, the system named is Spodoptera litura. Nature of the series: Test Example 2-2: artificial diet test on fourth-instar larvae of Spodoptera litura. It is filed as in vivo. Particulars: 500 ppm test solution, 1 mL on artificial diet; 25° C., 6 days. As for the experimental part:
as §2, with “The formulation of the compound of the present invention obtained in Formulation Example 3 was diluted with water so that the concentration of the active ingredient became 500 ppm to prepare a test solution. An” for “An”, “diet, Insecta LF” for “diet, Silkmate 2S”, “dried, 5 fourth-instar” for “dried, 30 first-instar”, “of Spodoptera litura” for “of Adoxophyes orana”, “for 6” for “for 7”

A further series deals with Bemisia tabaci. As to the kind of experiment: Test Example 2-7: tomato seedling spray, larvae of Bemisia tabaci. It is filed as in vivo. Particulars: 500 ppm, 10 ml/cup sprayed on tomato seedling; 25° C., 7 days. As for the experimental part:
The formulation of the compound of the present invention obtained in Reference Example 4 was diluted with water so that the concentration of the active ingredient became 500 ppm to prepare a test solution. On a tomato seedling at the third true leaf stage placed in a polyethylene cup, imagoes of Bemisia tabaci were released and allowed to lay eggs for about 24 hours. The plant was placed in a greenhouse for 8 days. When larvae of Bemisia tabaci hatched from the eggs, 10 ml/cup of the test solution was sprayed. After the plant was kept at 25° C. for 7 days, the number of the larvae surviving on the tomato leaves was counted, and a controlling value was determined by the following equation. Controlling value (%)={1−(Cb×Tai)/(Cai×Tb)}×100 wherein Cb: the number of insects in a non-treated section before treatment, Cai: the number of insects in a non-treated section on observation, Tb: the number of insects in a treated-section before treatment, Tai: the number of insects in a treated section on observation.

Another series relates to Aphis gossypii. As to the kind of experiment: Test Example 2-6: cucumber seedling spray, imagoes of Aphis gossypii. It is filed as in vivo. Particulars: 500 ppm, 10 mL sprayed on cucumber seedling one day after release; counted five days after spraying. As for the experimental part: The formulation of the compound of the present invention obtained in Reference Example 3 was diluted with water so that the concentration of the active ingredient became 500 ppm to prepare a test solution. On a cucumber seedling at the second true leaf stage placed in a polyethylene cup, about 30 imagoes of Aphis gossypii were released. One day after the release of aphids, 10 mL of the test solution was sprayed on the plant. Five days after the spraying treatment, the number of the insects parasitizing the leaves of the plant was counted, and a controlling value was determined by the following equation. Controlling value (%)={1−(Cb×Tai)/(Cai×Tb)}×100 wherein Cb: the number of insects in a non-treated section before treatment, Cai: the number of insects in a non-treated section on observation, Tb: the number of insects in a treated-section before treatment, Tai: the number of insects in a treated section on observation.

Structures are written as SMILES.

As to `CCc1cc(C)cc(CC)c1-c1c(OC)c(C)nn(C)c1=O` [Compound D], the “controlling effect on Echinochloa crus-galli (11 levels, 0 to 10)” value in the series with Echinochloa crus-galli was 0. Besides, the “controlling effect on Lolium multiflorum (11 levels, 0 to 10)” value with Lolium multiflorum came out at 0. For the same molecule, in the series with Galium aparine, the “controlling effect on Galium aparine (11 levels, 0 to 10)” value is 0.

`COCOc1c(C)nn(C)c(=O)c1-c1cc(-c2ccc(Cl)cc2)ccc1C` [I-1-6]: the controlling value (in [1]; with Bemisia tabaci; in the series with Aphis gossypii) was not below 90% throughout. Also, the “insecticidal index (death rate)” value with Adoxophyes orana was 4 (death rate of 100%); with Culex pipiens pallens it was 4 (death rate of 91-100%); in the series with Spodoptera litura it was 3 (death rate of 80-99%).

Usually melting point stands for the temperature, or range, at which the solid turns liquid. Molecule `CCc1cc(CC)c(-c2c(OCS(C)(=O)=O)c(C)nn(C)c2=O)c(CC)c1` [I-4-1, 2,6-dimethyl-5-methylsulfonylmethoxy-4-(2,4,6-triethylphenyl)-3(2H)-pyridazinone] returned a melting point of 142 to 143 °C.

The record behind these values is US8507410B2, “Pyridazinone compound and use thereof” (Sumitomo Chemical Company, Limited, priority 2009, dated 2013).
